Measurements reported in patent publication US7083983B2, “Inhibitors of the interaction between P53 and MDM2” (Cancer Research Campaign Technology Limited, priority 1996, dated 2006).
Where no end group is shown, it is not given here.

What was measured:
[1] = tested on: GST-hdm2, MBP-hdm2 or TRX-hdm2; test: solution phase phage ELISA with hdm2 fusion proteins; format: binding, human; settings: phages preincubated in solution with GST-hdm2, MBP-hdm2 or TRX-hdm2
Experimental: GST-, MBP-, TRX-hdm2 or baculovirus produced mdm2 (Sf9 cell extract) diluted in PBST-M are reacted in solution with hdm2- or GST-binding phage overnight at 4° C. Simultaneously, ELISA plates are coated with 100 μl Rabbit anti-mouse antibodies (DAKO, Z0259) 1:1000 in 0.1 M NaHCO3, pH 9.6. The plates are blocked as usual and incubated with monoclonal anti-mdm2 antibodies (hybridoma supernatant 1:5 diluted in PBST-M) for one hour. For the titration ELISA, purified SMP14 (8 μg/ml in PBS) is used to coat the plate directly. In either case, the pre-incubated phage-hdm2 samples are transfered to the coated and blocked plate and incubated for two hours at room temperature. Bound phages are detected as described.
For these experiment clones BB2/BB11 (GST binding control phage) and BB3/BB10 (hdm2 phage) are chosen. Phages are preincubated in solution with GST-hdm2, MBP-hdm2 or TRX-hdm2 and the phage-hdm2 complexes are transfered to wells which contain different monoclonal anti-mdm2 antibodies bound to the solid phase via anti-mouse antibodies. Bound phages are detected. […] All three anti-mdm2 antibodies used (SMP 14, 4B2, 3G5) are able to bind to hdm2 complexed with GST-phage. Antibody SMP14 is commercially available and described in Picksley et al., Oncogene 9, 2523–2529 (1994) incorporated by reference above. […] Phage-hdm2 complexes are pulled down by solid phase SMP14 and bound phages are detected. […]

[2] = tested on: U2-OS cells, pRGCΔFosLacZ reporter; test: transient transfection, p53 reporter induction in U2-OS cells; format: cell-based; settings: transfected plasmid DNA, 48 hours after transfection
Experimental: (§1) The OSA cell line contains a highly elevated mdm2 level due to gene amplification (Florence et al., 1994). The U2-OS cell line has no gene amplification for mdm2 but has elevated levels of dmd2-mRNA (Florence et al. 1994). The MCF-7 cell line contains heterogenously expressed low levels of wild type p53 and no reported mdm2 elevation.
(§2) For transient transfection and reporter induction, cells are seeded into 6 well plates at 1.5×10^6 cell per well. They are grown to a density of 80% confluence and transfected using different Lipophilic reagents such Lipofectin and Lipofectamin from Promega or Dosper and Dotap from Boehringer. […] Two to four hours after transfection, complete medium is added. Forty-eight hours after transfection β-galactosidase activity is measured using […] (Boehringer) as a substrate. Cells are scraped into PBS and centrifuged. Pellets from each well are dissolved in 50 μl of Reporter Lysis buffer (Promega) and incubated on ice for 15 minutes. Soluble Lysates are incubated with CPRG in 100 mM phosphate buffer, pH 7.0. Optical Density at 595 nm is measured 1 to 24 hours later.

[3] = tested on: MCF-7 cells, pRGCΔFosLacZ reporter; test: transient transfection, p53 reporter induction in MCF-7 cells; format: cell-based; settings: transfected plasmid DNA, 48 hours after transfection
Experimental: as §1, §2

[4] = tested on: OSA cells, pRGCΔFosLacZ reporter; test: transient transfection, p53 reporter induction in OSA cells; format: cell-based, human; settings: highly elevated mdm2, transfected plasmid DNA, 48 hours after transfection
Experimental: as §1, §2

[5] = tested on: T22 cells stably transfected with pRGC ΔFosLacz, a p53 responsive β-galactosidase reporter; test: p53 responsive β-galactosidase reporter after microinjection into T22 cells; format: cell-based, mouse; settings: low level p53 and mdm2, 24 hours
From the text: (§3) Antibodies or DNA encoding the described binding elements may be microinjected into Vrn.6 cells, a transformed rat thyroid epithelial cell line and T22 cells, a mouse prostrate derived cell line both cell lines being stably transfected with pRGC ΔFosLacz, a p53 responsive β-galactosidase reporter. […] Vrn.6 tolerate high levels of wild type p53 and overexpress MDM2 at a protein level. T22 cells typically contain low levels of p53 and mdm2.
(§4) For microinjection, cells may be seeded into tissue culture dishes and grown to 60–70% confluence. Microinjection may be performed using an Eppendorfer microinjection system (Microinjector 5242, Micromanipulator 5170) mounted to an Axiovert light microscope (Zeiss) having a heated stage.
(§5) Purified mouse monoclonal antibodies 3G5 and 4B2 may be injected intranuclearly and cytoplasmicly in PBS at a concentration of 1.3 mg/ml. Plasmid DNA encoding for TIP 12/1, TIP wt and Trx may be injected intronuclearly in water at a concentration of 0.25 mg 7 ml. Following microinjection, fresh medium may be added to the cell cultures and the cultures further incubated for 24 hours.
(§6) To detect β-galactosidase activity, cells may be washed with PBS and fixed with 2% formaldehyde, /0.2% glutaraldehyde in PBS for 5 minutes on ice. […]

[6] = tested on: Vrn.6 cells stably transfected with pRGC ΔFosLacz, a p53 responsive β-galactosidase reporter; test: p53 responsive β-galactosidase reporter after microinjection into Vrn.6 cells; format: cell-based, rat; settings: Vrn.6 cells having overexpressed MDM2; injected intranuclearly; 24 hours
From the text: as §3, §4, §5, §6

Chain of GST-hdm2, MBP-hdm2 or TRX-hdm2 (Q00987 1-188 limits assumed): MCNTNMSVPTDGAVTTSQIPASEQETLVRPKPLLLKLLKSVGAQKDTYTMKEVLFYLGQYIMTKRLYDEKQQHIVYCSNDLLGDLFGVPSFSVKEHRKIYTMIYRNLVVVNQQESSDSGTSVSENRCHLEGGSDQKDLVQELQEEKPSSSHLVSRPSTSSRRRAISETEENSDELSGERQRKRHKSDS

Row | Substance | binding of phage to hdm2 fusion proteins [1] | induction of the p53 reporter (β-galactosidase activity) [2] | induction of the p53 reporter (β-galactosidase activity) [3] | induction of the p53 reporter (β-galactosidase activity) [4] | β-galactosidase response (blue stained cells) of p53 reporter [5] | β-galactosidase response (blue stained cells) of p53 reporter [6]
1 | PAFSRFWSADLSAGAH [BB3] | recognizes all three hdm2 fusion proteins |  |  |  |  | 
2 | TIP 12/1: binding element: E. coli thioredoxin presenting the peptide insert of clone 12/1 in its active site, delivered as encoding plasmid DNA (MPRFMDYWEGLN; not fully specified; printed as M-P-R-F-M-D-Y-W-E-G-L-N) |  | most induction | most induction | Lower induction | strong positive response | 
3 | Trx: negative control binding element comprising thioredoxin without a peptide insert [reference compound] |  |  |  |  | No response | not a positive response
